Non-standard residues stand in square brackets, D forms with d. Residues, ends and D or L forms follow the SMILES beside them.
Assays:
[1] = system: B cells isolated from CLL patients; experiment: PCD (phosphatidylserine exposure, Annexin-V-FITC, flow cytometry) in B cells from CLL patients; format: cell-based, human
Text: (§1) After authorized consent forms fresh blood samples will be collected from CLL patients diagnosed according to classical morphological and immunophenotypic criteria at Pitié-Salpêtrière Hospital (Service d'Hématologie Biologique). Normal B lymphocytes will be obtained from EFS (Etablisement Français du Sang). The Institutional Ethics Committee at Pitie-Salpetriere Hospital approved the present study. Mononuclear cells were purified from blood samples using a standard Ficoll-Hypaque gradient, and B cells were positively or negatively selected by magnetic beads coupled to anti-CD19 monoclonal antibody (positive selection) or to anti-CD16, CD3, and CD14 monoclonal antibodies (negative depletion) (Miltenyi Biotech). No changes were found in the cell death response of positively or negatively selected cells. Purified B-lymphocytes were cultured in complete medium (RPMI 1640 medium supplemented with 10% fetal calf serum, 2 mM L-glutamine, and 100 U/ml penicillin-streptomycin). Unless specified, reagents were from Sigma-Aldrich.
To induce cell death B-lymphocytes were cultured 1 h with the TSP-1 derived peptide 4N1K (300 μM; sequence KRFYVVMWKK, SEQ ID NO:1), the negative control peptide 4NGG (300 μM; sequence KRFYGGMWKK, SEQ ID NO:2), the newly developed peptide PKHB1 (150 μM; sequence (D)K-R-F-Y-[…]-M-W-(D)K) (formula I) or an anti-CD47 mAb (in soluble conditions or in immobilized precoated plates; 5 μg/ml; clone B6H12). Alternatively, B-cells were pre-treated for 30 min before the induction of cell death with the calcium chelator BAPTA-AM (20 μM), the caspase-inhibitor Z-VAD.fmk (50 μM).
(§2) We used Annexin V-FITC (BD Biosciences) for the assessment of phosphatidylserine (PS) exposure. Data analysis was carried out in a FACSCanto II (BD Biosciences) on the total cell population (10,000 cells). Data were analyzed using FlowJo software (TreeStar).

cancer cell lines = experiment: PCD induction in cancer cell lines (whole panel of Table 1); format: cell-based; conditions: cancer cell lines of Table 1, Annexin V labeling
Method: as §2

primary cancer cells = experiment: PCD induction in primary cancer cells (whole panel of Table 2); format: cell-based; conditions: primary cancer cells (Table 2)
MEC-1 cells = experiment: Localized CLL xenograft model (MEC-1 cells subcutaneously in NSG mice); format: in vivo; conditions: 400 μg intraperitoneally three times per week
Method: 3×10^6 MEC-1 cells were injected subcutaneously into NOD scid gamma (NSG) mice (Charles River). When the tumor volume reached 0.1 cm^3, mice were injected intraperitoneally three times per week with 4NIK or PKHB1 (400 μg in 200 μl PBS). Tumor size was measured every 2-3 days with a calliper and tumor volume, calculated using the formula (length×width^2)/2, was expressed as mm^3. Alternatively, at the end of treatment mice were injected into the sinus retro-orbital with XenoLight RediJect 2-DG-750 Probe (Caliper) to visualize tumor cell glucose uptake, which reflects cell proliferation. Fluorescence was measured by In vivo imaging system FX Pro (Kodak) and pictures were analysed with the Carestream MI software.

[2] = system: CD19^+/CD5^− (residual B-cells); experiment: Cell death in residual B-cells of CLL patients (flow cytometry); format: cell-based, human; conditions: n=8 patients (FIG. 6C)
Method: FIG. 6A-D. FIG. 6(A) B cells isolated from CLL patients were left untreated (control) or cultured 1 h in the presence of 4N1K or the 4N1K-derivative peptide PKHB-1 at the indicated concentration. The percentage of cells that expose phosphatidylserine (measured with Annexin-V-FITC) was recorded and expressed as a plot. Data are the means of eight independent experiments. FIG. 6(B) In a similar experiment B-lymphocytes from 14 different CLL patients, including individuals with unmutated IGHV, complex karyotype and dysfunctional TP53, were left untreated (control) or cultured 1 h in the presence of 4N1K (300 μM) or the 4N1K-derivative peptide PKHB-1 (150 μM). PCD was measured by Annexin-V-FITC labelling in a flow cytometer. FIG. 6(C) Cell death was determined as described in A in 4N1K or PKHB1-treated CD19^+/CD5^− (residual B-cells) and CD19^+/CD5^+ B-lymphocytes (CLL cells) identified by flow cytometry from each CLL patient. Data are presented as the mean±s.d. (n=8 patients). FIG. 6(D) Cell death was measured by Annexin V-positive staining in 4N1K or PKHB1-treated CLL cells pre-incubated or not with the intracellular calcium chelator BAPTA-AM. Data are presented as the mean±S.D. (n=10 patients).
(§3) We used Annexin V-FITC (BD Biosciences) for the assessment of phosphatidylserine (PS) exposure. […] Data were analyzed using FlowJo software (TreeStar).

[3] = Peptide stability in human serum, HPLC; format: in vitro ADME
Method: FIG. 8: 4N1K and PKHB1 peptides stability were evaluated in human serum at 37° C. for 6 h. The relative concentrations of the remaining soluble peptides were analyzed by HPLC, by the integration of the absorbance at 220 nm as a function of retention time.

normal B-lymphocytes = experiment: PCD (Annexin-V-FITC) in normal B-lymphocytes; format: cell-based, human
Text: as §1, with “Sigma-Aldrich. […]” for “Sigma-Aldrich.”
as §3

Molecule | PCD induction in CLL primary cells (in words) ([1]; soluble peptide or mAb (FIG. 1)) | cell death / caspase-independent PCD induction (in words) (cancer cell lines) | caspase-independent PCD induction (in words) (primary cancer cells) | tumor growth compared to control mice (MEC-1 cells; NSG mice with MEC-1 tumors (FIG. 7)) | tumor glucose uptake (2-DG) compared to control mice (MEC-1 cells; NSG mice with MEC-1 tumors (FIG. 7C)) | cell death of residual CD19^+/CD5^− B-lymphocytes [2] | time over which stable in human serum ([3]; 37° C. (FIG. 8)) [h] | degradation in human serum ([3]; 37° C., 6 h, HPLC 220 nm (FIG. 8)) | cytotoxicity in normal B-lymphocytes (normal B-lymphocytes) | efficiency compared with 4N1K ([1]; B cells isolated from CLL patients, 1 h, indicated concentrations (FIG. 6A)) | effect of pre-treatment with calcium chelator BAPTA-AM on peptide-mediated PCD ([1]; BAPTA-AM 20 μM before PCD induction (FIG. 5, FIG. 6D)) | cell death of CD19^+/CD5^+ tumor cells ([1]; CD19^+/CD5^+ CLL cells, n=8 patients (FIG. 6C))
KRFYGGMWKK [4NGG, negative soluble control peptide, 4N1K mutated in two amino acids, reference compound] | unable to induce PCD | inefficient | inefficient |  |  |  |  |  |  |  |  | 
CSCC[C@H](NC(=O)[C@@H](NC(=O)[C@@H](NC(=O)[C@H](Cc1ccc(O)cc1)NC(=O)[C@H](Cc1ccccc1)NC(=O)[C@H](CCCNC(=N)N)NC(=O)[C@@H](N)CCCCN)C(C)C)C(C)C)C(=O)N[C@@H](Cc1c[nH]c2ccccc12)C(=O)N[C@@H](CCCCN)C(=O)N[C@H](CCCCN)C(=O)O [PKHB1, (D)K-R-F-Y-V-V-M-W-K-(D)] (H-KRFYVVMWK[dK]-OH) |  |  |  | reduction | reduction | resistant | ≥ 6 | not degradated | not in normal B-lymphocytes | better efficiency than the 4N1K peptide | significantly decreased | significantly killed

From patent publication US10759843B2, “Method and pharmaceutical composition for use in the treatment of cancer” (priority 2012, dated 2020)
